Test results taken from EP0965591A1, “(s)-3-methyl-1-(2-piperidino-phenyl)-1-butylamine, its salts, synthesis and use in the long term therapy of diabetes mellitus” (Boehringer Ingelheim Pharma KG, priority 1991, dated 1993).

Columns and labels:
weiblichen Ratten = experiment: Blood-glucose-lowering effect in female rats; type: in vivo, Ratte; conditions: for blutzuckersenkende Wirkung: female rats, comparison of the two enantiomers
From the text: Die beiden Enantiomeren dieser Verbindung, nämlich (S)(+)-2-Ethoxy-4-[N-[1-(2-piperidino-phenyl)-3-methyl-1-butyl]-aminocarbonylmethyl]benzoesäure (Code-Nr.: AG-EE 623 ZD) und (R) (-)-2-Ethoxy-4-[N-[1-(2-piperidino-phenyl)-3-methyl-1-butyl]aminocarbonylmethyl]benzoesäure (Code-Nr.: AG-EE 624 ZD), wurden auf ihre blutzuckersenkende Wirkung an weiblichen Ratten geprüft.

[1] = parameters: species or system Menschen; conditions: in vivo
Protocol: Dies wirkt sich z.B. bei Applikation einer Tablette mit 2 mg AG-EE 388 ZW bzw. einer Tablette mit 1 mg AG-EE 623 ZW an 12 bzw. 6 Probanden so aus, daß die Maximal-Konzentrationen 84 ± 25 bzw. 28 ± 18 ng/ml sowie die Konzentrationen nach 4 Stunden 19 ± 8 bzw. 0,7 ± 1,0 ng/ml, nach 5 Stunden 13 ± 6 bzw. 0,3 ± 0,7 ng/ml und nach 6 Stunden 10 ± 6 bzw. 0,3 ± 0,7 ng/ml betragen.

Menschen = experiment: Blood-glucose-lowering effect in human studies; type: in vivo
From the text: Auf Grund dieser Ergebnisse an der Ratte erscheint für den Menschen die ausschließliche Verwendung von AG-EE 623 ZW geboten, wodurch die Dosis im Vergleich zur AG-EE 388 ZW-Dosis um 50 % reduziert werden kann. […] Darüber hinaus wurde jedoch bei den Human-Studien gefunden, daß AG-EE 623 ZW überraschende pharmakokinetische Eigenschaften aufweist, die auf Grund der AG-EE 388 ZW-Daten nicht vorhersehbar waren. AG-EE 623 ZW zeigt somit überraschende therapeutische Vorteile gegenüber dem Racemat AG-EE 388 ZW.

Ratten = experiment: Acute toxicity after a single oral dose in rats; type: in vivo; conditions: single 1000 mg/kg p.o., suspension in 1% Methylcellulose; 5 male and 5 female rats; 14 days observation

Compound: CCOc1cc(CC(=O)N[C@@H](CC(C)C)c2ccccc2N2CCCCC2)ccc1C(=O)O [AG-EE 623 ZW, (S)(+)-2-Ethoxy-4-[N-[1-(2-piperidino-phenyl)-3-methyl-1-butyl]-aminocarbonylmethyl]benzoesäure]
- blutzuckersenkende Wirkung (weiblichen Ratten): das wirksame Enantiomere
- Dauer der Wirkung (weiblichen Ratten; rat, blood-glucose-lowering effect): > 6 Stunden
- Elimination [1]: wesentlich schneller als das unwirksame Enantiomere, AG-EE 624 ZW, eliminiert
- Plasmaspiegel in Relation zur erzielten Blutzuckersenkung [1]: wesentlich niedrigere Plasmaspiegel
- Wirkungsdauer (Menschen): relativ lange Wirkungsdauer
- verstorbene Tiere (Ratten): kein Tier

Compound: CCOc1cc(CC(=O)N[C@H](CC(C)C)c2ccccc2N2CCCCC2)ccc1C(=O)O [AG-EE 624 ZW, (R) (-)-2-Ethoxy-4-[N-[1-(2-piperidino-phenyl)-3-methyl-1-butyl]aminocarbonylmethyl]benzoesäure, reference compound]
- blutzuckersenkende Wirkung (weiblichen Ratten): das unwirksame Enantiomere
- Plasma-Konzentrationen nach Racemat-Gabe [1]: in unerwartet höheren Maximal- und Dauer-Spiegeln anwesend
